Experimental data reported in US5750405A, “Method for the detection for protein” (priority 1996, dated 1998).

How the values were obtained:
Urinary proteins = assay: DIDNTB reagent strip protein response, Example I, other urinary proteins; assay type: binding; settings: additive 6 mM; vs control formula lacking additive; negative = loss of protein response
Excerpt: (§1) The DIDNTB protein reagent was made from two saturations of Alhstrom 204 filter paper in which the first saturation was made with an aqueous ethanol mix containing tartaric acid as buffer and methyl red as background dye. The pH was adjusted to 2.1. The second saturation was with a toluene/tetrahydrofuran mix containing the DIDNTB indicator dye and Lutanol M40 (a polyvinylmethylether) as a color enhancer polymer.
(§2) The mix solutions were used to saturate the filter paper and the paper was dried at 105° C. for 7 minutes after each saturation. The resultant dry reagents were processed into reagent strips which were tested on a Clinitek-200+ reflectance spectrophotometer from Bayer Diagnostics after dipping into urine containing 0 or 30 mg/dL human serum albumin or 40 mg/dL of another urinary protein. The particulars of each dip solution are set out in Table 3.
Prior to the addition of HSA, the urine sample was filtered through an ultrafiltration membrane having a 10 KDa (kilodalton) molecular weight cut-off to remove naturally occurring proteins. The total protein in the urine sample was determined using an immunological HSA assay and the Coomassie Brilliant Blue (CBB) method described by Perini et al as cited above to screen over 175 clinical samples to provide specimens lacking albumin but containing other urine protein. […] These urines were pooled and diluted with negative urine to 40 mg/dL by the CBB method and less than 1.2 mg/dL by immunological HSA assay. The reagent response was measured on the […]-200+ instrument as the result of 1000×% Reflectance @ 610 nm/% reflectance @ 690 nm. The difference between negative and protein containing urines was taken as the protein response. The data generated by this experiment are set out in Table 1 in which the protein response of control formula lacking polymer or substituted alkane additive is compared to the formulas containing polymer or alkane to determine the % change in response. Negative numbers indicate greater loss of protein response. […]

[1] = molecular target: human serum albumin (HSA) (Homo sapiens, UniProt P02768); assay: DIDNTB reagent strip protein response, Example I, HSA; settings: for protein response: Example I, 6 mM of substituted alkane; for % change in response, HSA 30 mg/dL: additive 6 mM, vs control formula lacking additive, negative = loss of protein response
Chain of human serum albumin (HSA) (P02768 25-609): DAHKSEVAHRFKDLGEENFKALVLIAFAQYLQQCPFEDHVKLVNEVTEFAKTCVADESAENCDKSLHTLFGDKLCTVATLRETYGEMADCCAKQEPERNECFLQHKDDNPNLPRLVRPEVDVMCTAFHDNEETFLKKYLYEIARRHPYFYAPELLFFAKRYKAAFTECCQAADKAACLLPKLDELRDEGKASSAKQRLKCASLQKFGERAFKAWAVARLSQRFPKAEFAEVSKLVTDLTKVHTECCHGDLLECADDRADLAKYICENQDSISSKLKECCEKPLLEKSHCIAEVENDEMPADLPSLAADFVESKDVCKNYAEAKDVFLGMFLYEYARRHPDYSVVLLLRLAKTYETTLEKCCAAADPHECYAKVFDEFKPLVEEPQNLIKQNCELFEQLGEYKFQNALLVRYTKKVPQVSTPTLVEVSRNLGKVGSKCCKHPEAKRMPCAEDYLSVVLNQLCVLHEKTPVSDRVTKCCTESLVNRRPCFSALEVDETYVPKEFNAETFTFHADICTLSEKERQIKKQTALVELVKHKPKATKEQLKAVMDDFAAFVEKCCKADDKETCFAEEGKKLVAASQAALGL
Excerpt: as §1, §2
Prior to the addition of HSA, the urine sample was filtered through an ultrafiltration membrane having a 10 KDa (kilodalton) molecular weight cut-off to remove naturally occurring proteins. The total protein in the urine sample was determined using an immunological HSA assay and the Coomassie Brilliant Blue (CBB) method described by Perini et al as cited above to screen over 175 clinical samples to provide specimens lacking albumin but containing other urine protein. […] These urines were pooled and diluted with negative urine to 40 mg/dL by the CBB method and less than 1.2 mg/dL by immunological HSA assay. The reagent response was measured on the […]-200+ instrument as the result of 1000×% Reflectance @ 610 nm/% reflectance @ 690 nm. The difference between negative and protein containing urines was taken as the protein response. The data generated by this experiment are set out in Table 1 in which the protein response of control formula lacking polymer or substituted alkane additive is compared to the formulas containing polymer or alkane to determine the % change in response. Negative numbers indicate greater loss of protein response.
The HSA response in the presence of these additives was compared to the response for other urinary proteins such as Tamm Horsefall glycoprotein, Bence-Jones protein, α-1-microglobin, hemoglobin and various low molecular weight protein fragments. The additives were used at a 0.1% (w/w) concentration to allow a measurable HSA response in all cases. The 0.1% concentration amounts to […] concentration of additive and is in excess of the 4.4 μM concentration of the proteins tested.

albumin [2] = settings: Coomassie Brilliant Blue; cited from earlier work
albumin [3] = settings: cited from earlier work

Row | protein response [1] | % change in response, HSA 30 mg/dL [1] [%] | SMILES | % change in response, Urinary proteins 40 mg/dL (Urinary proteins) [%] | specificity of the test for albumin (albumin [2]) | effect on the binding of phenol red to albumin (albumin [3])
1 | did not affect the protein response | 3 | CCCCCCCCCCO [Decanol] | 8 |  | 
2 |  |  | CCCCCCCCCCCCCCCC(=O)O [Hexadecanoic acid] | 1 |  | 
3 |  |  | CCCCCCCCCCCCOS(=O)(=O)[O-].[Na+] [sodium dodecyl sulfate] |  | decreased the specificity | 
4 |  |  | CCCCCCCCCCCCCCCC(=O)O [Palmitate, palmitic acid] |  |  | modest inhibitory effects
5 | did not affect the protein response | 7 | CCCCCCCCCC(=O)O [Decanoic acid] | 2 |  | 
